Measured values from patent publication US10072011B2, “Substituted bridged urea analogs as sirtuin modulators” (GlaxoSmithKline Intellectual Property (No.2) Limited, priority 2014, dated 2018).

Target: T1, SIRT1 (Homo sapiens, UniProt Q96EB6)
T1 sequence (Q96EB6 1-747): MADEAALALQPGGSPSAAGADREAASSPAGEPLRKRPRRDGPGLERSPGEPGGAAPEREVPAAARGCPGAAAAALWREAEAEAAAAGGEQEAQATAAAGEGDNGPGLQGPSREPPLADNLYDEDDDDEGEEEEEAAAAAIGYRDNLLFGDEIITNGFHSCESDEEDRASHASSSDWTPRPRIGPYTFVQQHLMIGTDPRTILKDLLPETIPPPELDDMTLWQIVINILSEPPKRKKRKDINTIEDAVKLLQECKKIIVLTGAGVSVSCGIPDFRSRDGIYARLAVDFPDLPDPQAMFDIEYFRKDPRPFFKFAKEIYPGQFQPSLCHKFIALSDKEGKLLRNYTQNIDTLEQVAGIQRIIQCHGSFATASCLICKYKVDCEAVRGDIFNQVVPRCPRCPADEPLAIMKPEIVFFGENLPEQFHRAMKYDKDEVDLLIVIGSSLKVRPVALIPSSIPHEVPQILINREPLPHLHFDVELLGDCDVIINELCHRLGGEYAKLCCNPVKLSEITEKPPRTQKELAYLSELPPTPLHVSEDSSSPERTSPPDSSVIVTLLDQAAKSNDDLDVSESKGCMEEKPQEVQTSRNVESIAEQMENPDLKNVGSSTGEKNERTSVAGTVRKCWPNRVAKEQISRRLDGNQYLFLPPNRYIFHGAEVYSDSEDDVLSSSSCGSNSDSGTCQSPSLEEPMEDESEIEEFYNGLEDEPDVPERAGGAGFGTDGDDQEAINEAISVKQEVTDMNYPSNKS
Assay: Trp mass spectrometry assay of SIRT1 activation (Ac-R-H-K-K(Ac)-W-NH2 peptide)
Format: biochemical
Conditions: Trp peptide 0.5 μM, 120 μM βNAD+, 10 nM SIRT1, 25 min at 25° C.; for Emax: 25 min, read-out: TRP MAX RESP (percent maximum fold activation)
In short: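 N-terminal His-tagged human SIRT1, expressed in BL21(DE3) and purified, was incubated 25 min with an acetylated Trp peptide and NAD plus test compound at varying concentrations, then quenched with formic acid. OAADPR or deacetylated peptide was quantified by mass spectrometry versus compound-free control; EC1.5 is the concentration giving 50% activity increase, with percent maximum activation.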

| Structure (SMILES) | TRP Activity (EC1.5, concentration of test compound that results in 150% activation of SIRT1) | TRP MAX RESP (percent maximum fold activation) (relative to control (100%)) | Emax (relative to control (100%)) |
| --- | --- | --- | --- |
| C=CCNC(=O)c1ccc2c(n1)N(C(=O)Nc1cc(OC[C@H](O)CO)ccn1)[C@H]1CCN2C1 [Example 315, (4S)—N7-allyl-N5-(4-((R)-2,3-dihydroxypropoxy)pyridin-2-yl)-3,4-dihydro-1,4-methanopyrido[2,3-b][1,4]diazepine-5,7(2H)-dicarboxamide] | B (EC1.5 1-25 μM) | B (Fold Activation<150%) | – |
| Cc1ccc2c(NC(=O)N3c4nc(C(=O)N[C@H](C)C(F)(F)F)c(Cl)cc4N4CC[C@H]3C4)n[nH]c2n1 [Example 316, (4S)-8-chloro-N5-(6-methyl-1H-pyrazolo[3,4-b]pyridin-3-yl)-N7-((R)-1,1,1-trifluoropropan-2-yl)-3,4-dihydro-1,4-methanopyrido[2,3-b][1,4]diazepine-5,7(2H)-dicarboxamide] | B (EC1.5 1-25 μM) | – | < 150% |
| Cc1ncc(-c2cc(NC(=O)N3c4nc(C(=O)N[C@H](C)C(F)(F)F)ccc4N4CC[C@H]3C4)ncn2)o1 [Example 318, (4S)—N5-(6-(2-methyloxazol-5-yl)pyrimidin-4-yl)-N7-((R)-1,1,1-trifluoropropan-2-yl)-3,4-dihydro-1,4-methanopyrido[2,3-b][1,4]diazepine-5,7(2H)-dicarboxamide] | A (EC1.5<1 μM) | – | < 150% |
| Cc1ncc(-c2cc(NC(=O)N3c4nc(C(=O)N[C@H](C)C(F)(F)F)ccc4N4CC[C@H]3C4)c(=O)n(C)c2)o1 [Example 319, (4S)—N5-(1-methyl-5-(2-methyloxazol-5-yl)-2-oxo-1,2-dihydropyridin-3-yl)-N7-((R)-1,1,1-trifluoropropan-2-yl)-3,4-dihydro-1,4-methanopyrido[2,3-b][1,4]diazepine-5,7(2H)-dicarboxamide] | A (EC1.5<1 μM) | – | < 150% |
| CC(=O)Nc1ccnc(NC(=O)N2c3nc(C(=O)N[C@H](C)C(F)(F)F)ccc3N3CC[C@H]2C3)c1 [Example 320, (4S)—N5-(4-acetamidopyridin-2-yl)-N7-((R)-1,1,1-trifluoropropan-2-yl)-3,4-dihydro-1,4-methanopyrido[2,3-b][1,4]diazepine-5,7(2H)-dicarboxamide] | A (EC1.5<1 μM) | – | < 150% |
| C[C@@H](NC(=O)c1ccc2c(n1)N(C(=O)Nc1cc(-c3cn[nH]c3)ccn1)[C@H]1CCN2C1)C(F)(F)F [Example 321, (4S)—N5-(4-(1H-pyrazol-4-yl)pyridin-2-yl)-N7-((R)-1,1,1-trifluoropropan-2-yl)-3,4-dihydro-1,4-methanopyrido[2,3-b][1,4]diazepine-5,7(2H)-dicarboxamide] | A (EC1.5<1 μM) | – | < 150% |
| C[C@@H](NC(=O)c1ccc2c(n1)N(C(=O)Nc1cc(-c3ncn[nH]3)ccn1)[C@H]1CCN2C1)C(F)(F)F [Example 322, (4S)—N5-(4-(1H-1,2,4-triazol-5-yl)pyridin-2-yl)-N7-((R)-1,1,1-trifluoropropan-2-yl)-3,4-dihydro-1,4-methanopyrido[2,3-b][1,4]diazepine-5,7(2H)-dicarboxamide] | A (EC1.5<1 μM) | – | < 150% |
| C[C@@H](NC(=O)c1ccc2c(n1)N(C(=O)Nc1cc(-c3cc[nH]n3)ccn1)[C@H]1CCN2C1)C(F)(F)F [Example 323, (4S)—N5-(4-(1H-pyrazol-3-yl)pyridin-2-yl)-N7-((R)-1,1,1-trifluoropropan-2-yl)-3,4-dihydro-1,4-methanopyrido[2,3-b][1,4]diazepine-5,7(2H)-dicarboxamide] | A (EC1.5<1 μM) | – | < 150% |
| C[C@@H](NC(=O)c1ccc2c(n1)N(C(=O)Nc1cc(NS(C)(=O)=O)ccn1)[C@H]1CCN2C1)C(F)(F)F [Example 324, (4S)—N5-(4-(methylsulfonamido)pyridin-2-yl)-N7-((R)-1,1,1-trifluoropropan-2-yl)-3,4-dihydro-1,4-methanopyrido[2,3-b][1,4]diazepine-5,7(2H)-dicarboxamide] | A (EC1.5<1 μM) | – | < 150% |
| C[C@@H](NC(=O)c1ccc2c(n1)N(C(=O)Nc1cc(-c3cnc(C4CC4)s3)ccn1)[C@H]1CCN2C1)C(F)(F)F [Example 325, (4S)—N5-(4-(2-cyclopropylthiazol-5-yl)pyridin-2-yl)-N7-((R)-1,1,1-trifluoropropan-2-yl)-3,4-dihydro-1,4-methanopyrido[2,3-b][1,4]diazepine-5,7(2H)-dicarboxamide] | A (EC1.5<1 μM) | – | < 150% |
